According to PubChem BioAssay (NCI):
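Where inhibition never reached the appropriate level, the endpoint shown equals the highest concentration tested. Otherwise, values were interpolated linearly from a five-concentration, 48-hour dose response in 96-well plates. Abbreviation: GI50, concentration required for 50% inhibition of growth. TGI is the concentration that stops growth completely.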

Columns and labels:
Experiment in all cases: growth of human tumour cells (NCI), 48 h
[1] = tested on: 786-0 renal
[2] = tested on: A498 renal
[3] = tested on: A549 NSCLC
[4] = tested on: ACHN renal
[5] = tested on: BT-549 breast
[6] = tested on: CAKI-1 renal
[7] = tested on: CCRF-CEM leukemia
[8] = tested on: COLO 205 colon
[9] = tested on: DU-145 prostate
[10] = tested on: EKVX NSCLC
[11] = tested on: HCC-2998 colon
[12] = tested on: HCT-116 colon
[13] = tested on: HCT-15 colon
[14] = tested on: HL-60(TB) leukemia
[15] = tested on: HOP-62 NSCLC
[16] = tested on: HOP-92 NSCLC
[17] = tested on: HS 578T breast
[18] = tested on: HT29 colon
[19] = tested on: IGROV1 ovarian
[20] = tested on: K-562 leukemia
[21] = tested on: KM12 colon
[22] = tested on: LOX IMVI melanoma
[23] = tested on: M14 melanoma
[24] = tested on: MALME-3M melanoma
[25] = tested on: MCF7 breast
[26] = tested on: MDA-MB-231 breast
[27] = tested on: MDA-MB-435
[28] = tested on: MOLT-4 leukemia
[29] = tested on: NCI-H226 lung
[30] = tested on: NCI-H23 lung
[31] = tested on: NCI-H460 lung
[32] = tested on: NCI-H522 lung
[33] = tested on: NCI/ADR-RES ovarian
[34] = tested on: OVCAR-3 ovarian
[35] = tested on: OVCAR-4 ovarian
[36] = tested on: OVCAR-5 ovarian
[37] = tested on: OVCAR-8 ovarian
[38] = tested on: PC-3 prostate
[39] = tested on: RPMI-8226 leukemia
[40] = tested on: RXF 393 renal
[41] = tested on: SF-268 CNS
[42] = tested on: SF-295 CNS
[43] = tested on: SF-539 CNS
[44] = tested on: SK-MEL-2 melanoma
[45] = tested on: SK-MEL-28 melanoma
[46] = tested on: SK-MEL-5 melanoma
[47] = tested on: SK-OV-3 ovarian
[48] = tested on: SN12C renal
[49] = tested on: SNB-19 CNS
[50] = tested on: SNB-75 CNS
[51] = tested on: SR leukemia
[52] = tested on: SW-620 colon
[53] = tested on: T-47D breast
[54] = tested on: TK-10 renal
[55] = tested on: U251 CNS
[56] = tested on: UACC-257 melanoma
[57] = tested on: UACC-62 melanoma
[58] = tested on: UO-31 renal

O=C(c1ccc(C(F)(F)F)c(Cl)c1)N(Cc1ccc(Cl)cc1)c1ccc(-c2cc(C(F)(F)F)[nH]n2)c(O)c1
GI50 [1]: 895 nM
TGI [1]: 1700 nM
GI50 [2]: 1040 nM
TGI [2]: 2660 nM
GI50 [3]: 1350 nM
TGI [3]: 5110 nM
GI50 [4]: 1240 nM
TGI [4]: 4050 nM
GI50 [5]: 1310 nM
TGI [5]: 3990 nM
GI50 [6]: 1010 nM
TGI [6]: 3040 nM
GI50 [7]: 1110 nM
TGI [7]: 5330 nM
GI50 [8]: 865 nM
TGI [8]: 1640 nM
GI50 [9]: 1430 nM
TGI [9]: 5340 nM
GI50 [10]: 1300 nM
TGI [10]: 4570 nM
GI50 [11]: 1430 nM
TGI [11]: 4630 nM
GI50 [12]: 705 nM
TGI [12]: 1580 nM
GI50 [13]: 777 nM
TGI [13]: 1970 nM
GI50 [14]: 1120 nM
TGI [14]: 2690 nM
GI50 [15]: 1020 nM
TGI [15]: 2330 nM
GI50 [16]: 629 nM
TGI [16]: 2140 nM
GI50 [17]: 1050 nM
TGI [17]: 3030 nM
GI50 [18]: 1250 nM
TGI [18]: 5550 nM
GI50 [19]: 887 nM
TGI [19]: 2130 nM
GI50 [20]: 1050 nM
TGI [20]: 5160 nM
GI50 [21]: 951 nM
TGI [21]: 2190 nM
GI50 [22]: 819 nM
TGI [22]: 1500 nM
GI50 [23]: 1010 nM
TGI [23]: 2430 nM
GI50 [24]: 941 nM
TGI [24]: 2360 nM
GI50 [25]: 1120 nM
TGI [25]: 3850 nM
GI50 [26]: 964 nM
TGI [26]: 2210 nM
GI50 [27]: 1250 nM
TGI [27]: 3660 nM
GI50 [28]: 1320 nM
TGI [28]: 5090 nM
GI50 [29]: 1080 nM
TGI [29]: 2940 nM
GI50 [30]: 910 nM
TGI [30]: 2450 nM
GI50 [31]: 1160 nM
TGI [31]: 3120 nM
GI50 [32]: 893 nM
TGI [32]: 3310 nM
GI50 [33]: 1110 nM
TGI [33]: 2990 nM
GI50 [34]: 845 nM
TGI [34]: 2190 nM
GI50 [35]: 1080 nM
TGI [35]: 4870 nM
GI50 [36]: 1070 nM
TGI [36]: 4260 nM
GI50 [37]: 1200 nM
TGI [37]: 3910 nM
GI50 [38]: 897 nM
TGI [38]: 2910 nM
GI50 [39]: 659 nM
TGI [39]: 2230 nM
GI50 [40]: 923 nM
TGI [40]: 2040 nM
GI50 [41]: 1320 nM
TGI [41]: 5190 nM
GI50 [42]: 1080 nM
TGI [42]: 2870 nM
GI50 [43]: 994 nM
TGI [43]: 2090 nM
GI50 [44]: 1160 nM
TGI [44]: 3130 nM
GI50 [45]: 1430 nM
TGI [45]: 5160 nM
GI50 [46]: 816 nM
TGI [46]: 1550 nM
GI50 [47]: 1370 nM
TGI [47]: 4890 nM
GI50 [48]: 886 nM
TGI [48]: 2040 nM
GI50 [49]: 1610 nM
TGI [49]: 6350 nM
GI50 [50]: 989 nM
TGI [50]: 3240 nM
GI50 [51]: 983 nM
TGI [51]: 2870 nM
GI50 [52]: 958 nM
TGI [52]: 2400 nM
GI50 [53]: 948 nM
TGI [53]: 3430 nM
GI50 [54]: 1410 nM
TGI [54]: 3990 nM
GI50 [55]: 882 nM
TGI [55]: 2250 nM
GI50 [56]: 1040 nM
TGI [56]: 3570 nM
GI50 [57]: 800 nM
TGI [57]: 1970 nM
GI50 [58]: 717 nM
TGI [58]: 1650 nM
